Measured values published in patent publication US8680052B1, “Methods of treating, reducing the incidence of, and/or preventing ischemic events” (The Medicines Company, priority 2013, dated 2014).
Where two headings read alike, the source gives them in different places.

System: patients with atherosclerosis undergoing PCI
[1] = 48 hours, ITT, rate in parentheses

Experimental: The protocol called for aspirin (75 to 325 mg) to be administered to all patients. […] The choice of a periprocedural anticoagulant (bivalirudin, unfractionated heparin, low-molecular-weight heparin, or fondaparinux) was also at the discretion of the investigator. Glycoprotein IIb/IIIa inhibitors were allowed only as rescue therapy during PCI to treat new or persistent thrombus formation, slow or no reflow, side-branch compromise, dissection, or distal embolization. The investigator at the site determined the protocol for management of the arterial sheath.
The inclusion criteria for the trial were men or nonpregnant women, 18 years of age or older with coronary atherosclerosis who required PCI for stable angina, a non-ST-segment elevation acute coronary syndrome, or ST-segment elevation myocardial infarction (STEMI). Patients were required to provide written informed consent.
Major exclusion criteria were receipt of a P2Y12 inhibitor or abciximab at any time in the 7 days before randomization and receipt of eptifibatide or tirofiban or fibrinolytic therapy in the 12 hours before randomization.
The primary efficacy end point was the composite rate of death from any cause, myocardial infarction, IDR, or stent thrombosis in the 48 hours after randomization in the modified intention-to-treat population (which comprised patients who actually underwent PCI and received the study drug). […] The key secondary end point was the incidence of stent thrombosis at 48 hours. This end point included definite stent thrombosis, defined according to the criteria of the Academic Research Consortium, or intraprocedural stent thrombosis, which was assessed, with group assignments concealed, at an angiographic core laboratory (Cardiovascular Research Foundation). Intraprocedural stent thrombosis was defined as any new or worsened thrombus related to the stent procedure that was confirmed angiographically. Events of death, myocardial infarction, IDR, and stent thrombosis that occurred during the first 30 days after randomization were adjudicated by the clinical events committee at the Duke Clinical Research Institute. The study adhered to the universal definition of myocardial infarction for myocardial infarction unrelated to PCI but expanded on the definition of PCI-related myocardial infarction.
The numbers and percentages of patients within each analysis population (modified intention-to-treat, intention-to-treat, and safety) were summarized according to treatment group. The primary efficacy analysis of the rate of the composite end point of death from any cause, myocardial infarction, IDR, or stent thrombosis (with all events adjudicated by the clinical events committee) in the 48 hours after randomization was conducted in the modified intention-to-treat population. The primary safety analysis was conducted in the safety population, which comprised all patients who underwent randomization and received at least one dose of the study drug; patients were classified according to the actual treatment received. All calculations and statistical analyses were performed with the use of SAS software, version 9.2.

COC(=O)[C@H](c1ccccc1Cl)N1CCc2sccc2C1 [Clopidogrel, clopidogrel, reference compound]
rate of stent thrombosis (key secondary efficacy end point) (48 hours): 1.4% | Death (48 hours, ITT, n/N): 21/5561 | Death/MI (48 hours, ITT, n/N): 275/5561 | Death/MI/IDR (48 hours, ITT, n/N): 289/5561 | Death/MI/IDR/ST (48 hours, ITT, n/N): 325/5561 | Death/MI/IDR/ST/GUSTO Severe Bleeding (Net Adverse Clinical Events, NACE) (48 hours, ITT, n/N): 330/5561 | Death/MI/ST (48 hours, ITT, n/N): 315/5561 | Death/Q-wave MI/IDR (48 hours, ITT, n/N): 67/5561 | Death/ST (48 hours, ITT, n/N): 90/5561 | IDR (48 hours, ITT, n/N): 38/5561 | MI (48 hours, ITT, n/N): 255/5561 | Q-wave MI (48 hours, ITT, n/N): 18/5561 | Stent thrombosis (48 hours, ITT, n/N): 74/5561 | Death [1]: (0.4) | Death/MI [1]: (5.0) | Death/MI/IDR [1]: (5.2) | Death/MI/IDR/ST [1]: (5.8) | Death/MI/IDR/ST/GUSTO Severe Bleeding (Net Adverse Clinical Events, NACE) [1]: (5.9) | Death/MI/ST [1]: (5.7) | Death/Q-wave MI/IDR [1]: (1.2) | Death/ST [1]: (1.6) | IDR [1]: (0.7) | MI [1]: (4.6) | Q-wave MI [1]: (0.3) | Stent thrombosis [1]: (1.3) | rate of primary composite efficacy end point (death from any cause, myocardial infarction, IDR, or stent thrombosis) (48 hours, modified intention-to-treat): 5.9% | net rate of adverse clinical events (primary efficacy plus primary safety end point) (48 hours, post hoc): 6.0% | Stent thrombosis (30 days): 1.9% | rate of the composite efficacy end point (30 days): 7.0% | rate of intraprocedural stent thrombosis (in vivo): 1.0% | rate of procedural complications (in vivo): 4.5% | use of rescue therapy with a glycoprotein IIb/IIIa inhibitor (in vivo): 3.5%
